Test results reported in patent US20260216180A1, “QUINOLINE DERIVATIVE COMPOUNDS OR PHARMACEUTICALLY ACCEPTABLE SALT THEREOF, PREPARATION METHOD THEREFOR AND USE THEREOF” (JIANGSU CAREPHAR PHARMACEUTICAL CO.,LTD., priority 2023, published 2026).
Marks after values point to notes of the source that are not given here.

What was measured:
[1] = test system: IL-6; experiment: Macrophage IL-6 secretion after LPS (ELISA); type: cell-based; conditions: Bone marrow macrophage, compared to 0 μM, mouse bone marrow macrophages, 200 ng/ml LPS, 6 hours, read-out: Inhibition rate of IL-6 at 10 μM concentration
Experimental: Pharmacological Activity Test: Regulatory Effect of Quinoline Derivatives on Macrophage IL-6 and TNF-α Secretion
Mouse bone marrow cells were isolated from the femur and tibia bone marrow of […] mice of 6-8 week old raised under SPF conditions and inoculated in 6-well plates at a density of 1.5*10^6 cells/well/2 mL. 50 ng/mL M-CSF was added to each well and the cells were cultured in a CO2 incubator for 3 days. On the third day, the culture medium was replaced with fresh medium containing 100 ng/mL M-CSF and the culture was continued for 3 days. On the 6th day, the supernatant was removed and the cells were washed once with DPBS. After adding 1 mL of DPBS, the macrophages were harvested using a cell scraper, centrifuged at 400 g for 10 min, and the supernatant was discarded. The cells were resuspended in fresh culture medium containing 50 ng/mL M-CSF, inoculated in a 96-well plate at a density of 2*10^4 cells/well/200 μL, and cultured in a CO2 incubator overnight. 0, 3, 5, […] of the test compound were added to each well (wherein well 0 contains 0.1% DMSO) respectively and incubate in a CO2 incubator for 1 hour. Then 200 ng/ml LPS was added and the cell supernatant was collected after 6 hours of co-culture. ELISA kits were used to detect the secretion levels of IL-6 and TNF-α.

[2] = biological target: T1, CYP2C8 (Homo sapiens, UniProt P10632); experiment: CYP enzyme inhibition, human liver microsomes, CYP2C8; type: in vitro ADME; conditions: probe substrate Amodiaquine, read-out: IC50 CYP 2C8
T1 construct: Commercially available mixed human liver microsomes were used; from tissue; host or cells: pooled human liver microsomes
T1 sequence (P10632 1-490): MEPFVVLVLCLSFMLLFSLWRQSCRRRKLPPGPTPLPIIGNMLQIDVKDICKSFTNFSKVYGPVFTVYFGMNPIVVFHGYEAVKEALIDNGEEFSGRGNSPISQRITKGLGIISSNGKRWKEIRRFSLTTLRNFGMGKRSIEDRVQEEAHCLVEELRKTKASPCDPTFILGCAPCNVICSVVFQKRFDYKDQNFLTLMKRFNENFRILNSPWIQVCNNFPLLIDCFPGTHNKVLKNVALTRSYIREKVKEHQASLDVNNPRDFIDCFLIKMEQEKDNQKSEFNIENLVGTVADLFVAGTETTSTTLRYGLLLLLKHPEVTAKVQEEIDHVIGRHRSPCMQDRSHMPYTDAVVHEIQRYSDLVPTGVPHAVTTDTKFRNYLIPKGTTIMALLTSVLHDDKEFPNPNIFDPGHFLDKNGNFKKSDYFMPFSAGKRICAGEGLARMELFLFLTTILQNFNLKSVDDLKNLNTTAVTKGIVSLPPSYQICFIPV
Experimental: Commercially available mixed human liver microsomes were used, with the liver microsome concentrations of diclofenac, dextromethorphan, and midazolam being 0.1 mg/mL; and the liver microsome concentrations of phenacetin, bupropion, amodiaquine, mephenytoin, and testosterone being 0.2 mg/mL. Probe substrate, specific inhibitor and test compound (ABX464, compound 18) were diluted to the corresponding concentration of working solution for use. A mixed solution containing liver microsomes, MgCl2, substrate, […] inhibitor, and the test compound was prepared. After the incubation, 600 μL of ice-cold ACN working solution containing IS was added to terminate the reaction, and the mixture was centrifuged and used for LC-MS/MS detection. [table] At different concentrations of the test compound or positive inhibitor, the percentage of remaining activity is determined by the ratio of the amount of characteristic metabolites of the probe substrate generated to the corresponding amount generated in the absence of the test compound or positive inhibitor. […]

[3] = test system: DSS colitis model; experiment: In vivo efficacy in 3% DSS colitis model in mice; set-up: species or system male C57BL/6 mice; conditions: for Colon length / Colon weight / Pathological score: D0-D11, DSS colitis mice; for Colon length / Colon weight: D11; for Pathological score: colon HE staining
Experimental: In this experiment, male C57BL/6 mice (from Jiangsu Jicui Pharmaceutical Biotechnology Co., Ltd.) were used to establish a colitis model by freely drinking 3% DSS water. After the adaptive feeding of mice, they were randomly divided into 4 groups according to their body weight: normal control group, DSS enteritis model group, compound 18-10 mg/kg group, and ABX464-40 mg/kg group. The day of grouping was recorded as DO. On D0-D8, mice in G2-G4 groups were given 3% DSS drinking water, which was changed every 3 days. On D9-D11, mice in G2-G4 groups were given normal drinking water. The corresponding solvents and drugs were intragastrically administered for 11 consecutive days from D0 to D11. From D0 to D11, mice in the G1 group received normal diet and water, and were given blank-vehicle for 11 consecutive days. The mice were observed daily from D0 to D11, their weights were recorded, diarrhea scores and bloody stool scores were measured daily, and the DAI values were calculated. On D11, mice were euthanized, colon tissue was obtained, colon length was measured, colon weight was weighed, and photos were taken. The colon tissues were subjected to HE staining and pathological analysis. Statistical analysis: Independent sample T test was used. #: P<0.05 compared with the normal control group; ##: P<0.01 compared with the normal control group; ###: P<0.001 compared with the normal control group. *: P<0.05 compared with the model control group; **: P<0.01 compared with the model control group; ***: P<0.001 compared with the model control group.

[4] = 10 mg/kg o.p. QD, listed as compound 18
[5] = 10 mg/kg o.p. QD, DSS colitis mice

Row | Structure (SMILES) | inhibition at 10 µM [1] | IC50 [2] | DAI score compared with DSS enteritis model control group ([3]; 40 mg/kg o.p. QD, DSS colitis mice) | Colon length ([3]; 10 mg/kg o.p. QD) | Colon weight ([3]; 10 mg/kg o.p. QD) | Colon length [3, 4] | Colon weight [3, 4] | Pathological score ([3]; 10 mg/kg o.p. QD) | Pathological score [3, 4] | Body weight of mice compared with DSS enteritis model control group [3, 5] | DAI score compared with DSS enteritis model control group [3, 5]
1 | FC(F)(F)Oc1ccc(Nc2ccc3cccc(Cl)c3n2)cc1 [ABX464, reference compound] | 61% | 35.9 µM | significantly reduced | – | – | – | – | – | – | – | –
2 | Fc1cc(Cl)c2nc(Nc3ccc(C4(C(F)(F)F)CC4)cc3)ccc2c1 [Compound 18, 8-chloro-6-fluoro-N-(4-(1-(trifluoromethyl)cyclopropyl)phenyl)quinolin-2-amine] | 88% | 40.4 µM | – | 6.6*** cm | 0.3710** g | significantly increased | significantly increased | 4.00 | significantly reduced | significantly increased | significantly reduced
